Assay results published in patent US20110111437A1, “Biomarkers For Prognosis of Pulmonary Diseases” (THE UNIVERSITY OF PITTSBURGH-OF THE COMMONWEALTH SYSTEM OF …, priority 2009, published 2011).

System: CD4+CD28null T cells from lung transplant recipients with BOS
Assay: Inhibition of proliferation by cyclosporine A (BrdU incorporation, anti-CD3 stimulation)
Type: cell-based, human
Conditions: preliminary findings, n=2 subjects
Method: Inhibition of Proliferation by Cyclosporine A (CsA) Segregated CD28+ and CD28null CD4 T-cell subpopulations were individually cultured in duplicate wells coated with anti-CD3 monoclonal antibody (OKT3) (see above). Autologous nurse cells, positively selected during the initial CD4 T-cell isolations (see above) were added in a 3:1 nurse cell:CD4 T-cell ratio. In order to eliminate potential confounding by CD4dim monocytes, all CD4+ cells were depleted from the nurse cells (<<1% residual), prior to their use in cultures, by positive selection with anti-CD4-coated magnetic beads (Invitrogen, Carlsbad, Calif.). Cyclosporine (Novartis, East Hanover, N.J.) to a final concentration of 100 ng/ml was added to half the wells. Proliferation within the respective CD4 subpopulations were measured by bromodeoxyuridine (BrdU) incorporation, using reagents and methods supplied in a kit (BD Pharmingen). In brief, BrdU in a final concentration of 10 μM was added to cultures two days prior to their harvests. After 5±1 days of culture, cells were harvested from wells and stained with anti-CD4, fixed and permeabilized, and then incubated with anti-BrdU and 7-amino-actinomycin (7-AAD). The proportion of proliferating CD4+ T cells (BrdU+) among the viable cells (≧diploid DNA content) was determined by flow cytometry.

C=CC[C@@H]1/C=C(\C)C[C@H](C)C[C@H](OC)[C@H]2O[C@@](O)(C(=O)C(=O)N3CCCC[C@H]3C(=O)O[C@H](/C(C)=C/[C@@H]3CC[C@@H](O)[C@H](OC)C3)[C@H](C)[C@@H](O)CC1=O)[C@H](C)C[C@@H]2OC [tacrolimus]
resistance of the cells to the drug: relatively resistant
